Source: patent publication US5358936A, “Anionic furanose derivatives, methods of making and using the same” (Gordon; Paul, priority 1991, dated 1994)
Structures can show the parent of a compound that is named as a salt.

Key:
rat hind paws = experiment: Paw swelling provoked by zymosan-activated serum or normal serum (Example 23); type: in vivo; conditions: for Paw Swelling, ZAS (MPO study): 45 minutes before ZAS, ZAS alone 34.58 ± 2.45; for Paw Swelling, ZAS (MPO study) / Paw Swelling, ZAS: P < 0.01; for Swelling Change, ZAS / Swelling Change, normal serum (NS): 50 mg/kg oral
Protocol: For the present studies, zymosan-activated serum (ZAS) was made by incubating reconstituted lyophilized rat serum with 10 mg/ml zymosan A for one hour at 37° C., and then microfiltering to remove the zymosan.
In the first study, distilled water vehicle or 50 mg/kg Compound III in water were given by oral gavage to 9 control and 9 drug-treated adult male rats, respectively, and 90 minutes later the dorsoventral diameter of the hind feet were determined by Schnelltaster caliper. Sera [0.1 ml ZAS or 0.1 ml normal serum (NS)] were thereafter injected into opposite hind paws of the same rat under ether anesthesia. Below are given the paw swellings that developed at 2 and 3 hours, in response to ZAS and to normal serum, in the absence and presence of drug treatment. Data are reported previously.
The relationship of neutrophil infiltration to ZAS-induced swelling, and its drug-inhibition, was evaluated in another study. In this study, all procedures employing ZAS and Compound III were carried out as above, except that, Compound III was administered 45 minutes before ZAS, and standardized samples of the swollen footpads were removed and subjected to analysis for myeloperoxidase activity (MPO), according to the method of Lundberg et al., Inflammation, 7:247, (1983). MPO is a neutrophil-specificenzyme, and its assay is the most widely used method of identifying the degree of neutrophil participation in organ pathology.

[1] = Dissolution and buffering of suspensions, HCl titration (Example 16); conditions: HCl titration
rat paw = experiment: Post-ischemic reperfusion paw swelling (Example 22); type: in vivo, Sprague Dawley male rats; conditions: for % Change as a result of treatment / Paw swelling, Mean ± SE: another study; for Paw swelling, Mean ± SE: i.p. 45 minutes prior; for Post-ischemic reperfusion 30 minute paw swelling, Mn ± SE: P < 0.02
From the text: This important disease model is used to evaluate aspects of tissue injury that occur in heart attack, or myocardial infarction, and stroke. Under these conditions, a significant period of injury can occur after blood flow has been restored, during the period of reperfusion.
To produce ischemia, blood flow to the left hind foot was largely interrupted by application of a tourniquet made up of two size 18 rubber bands wound eight times around the leg just behind the heel. […] Both application and removal of tourniquet were carried out under ether anesthesia. Injury was equated with organ swelling, which was assayed by measurement of the dorsoventral foot diameter with a Schnelltaster caliper, just before application of the tourniquet and at various times following tourniquet removal, during the reperfusion period.
Rats employed were Sprague Dawley males, weighing 240-280 grams. Drug comparisons were made here employing measurements 30 minutes into the reperfusion period. The widely studied drug allopurinol, a xanthine oxidase inhibitor and a free radical scavenging agent, used in the treatment of gout, and widely used to suppress experimental post-ischemic reperfusion injury was used as an experimental treatment standard. In studies below, allopurinol and all new drugs were given intraperitoneally 45-60 minutes prior to application of the tourniquet. Data are reported as the mean swelling (Mn)±standard error (SE). […] Group n is 5 or 6.
In another study, drug comparisons were made at various times after the reperfusion period. In this study, control and drug treatment groups were as above.

[2] = test system: gastric submucosal thrombi; experiment: Inhibition of gastric submucosal thrombi (Example 30); type: in vivo, rat; conditions: 10 mg/kg IV
Protocol: Thrombosis was induced in rat stomach submucosal blood vessels by the following two-step treatment. First, 1.5 ml of 100 percent ethanol was administered by oral gavage. This produces non-specific injury to tissues and blood vessels of the gastric mucosa. Second, 1.0 mg of adenosine diphosphate (ADP) in 1.0 ml of H2 O, was administered by oral garage 15 minutes after the administration of ethanol. Administration of ADP biases the organ response towards thrombosis by inducing platelet aggregation.
The pathology generated is typically a disseminated pattern of multiple small thrombi, observed on examination of the gastric mucosa, 1-3 hours after ethanol administration. These thrombi are dark red, dilated, thrombosed submucosal blood vessel segments, each being approximately 1 mm thick and 2 to 6 mm long.
In these studies, animals were treated with drug or centrol at one hour prior to ethanol administration. Thrombosis was induced as discussed before, and animals were sacrificed at 1.5 hours after ethanol administration. Focal thrombi were then counted. In this study, n=9-10.

mouse paw = experiment: Mouse paw edema provoked by neutral proteases (Example 32); type: in vivo; conditions: two hours; SOD 150 units IV; Compound III 50 mg/kg IP and IV; SOD P<0.05, Compound III P<0.01
Protocol: Both tryptic activity and collagenase activity are components of the tissue-injuring neutral proteinase activities secreted by neutrophils. Collagenase activity has also been associated with injury to cartilage; and, in another context, with the micro-injury to blood vessels that permits the extravasation and metastasis of, and by, tumor cells.
The effects of Compound III on rat and mouse paw edema as provoked by injection of these enzymes were evaluated. SOD injected IV and Compound III injected IP and IV at zero time, (as in Example 25), inhibited edema at two hours by from 33-40 percent, in both species. […] Both drug effects were significant by t test, SOD at P<0.05 and Compound III at P<0.01.

SMILES: CC1(C)O[C@H]2O[C@H]([C@@H](COS(=O)(=O)O)OS(=O)(=O)O)[C@H](OS(=O)(=O)O)[C@H]2O1 [Compound III, 1,2-O-(2-Propylidene)-3,5,6-tri-O-sulfo-α-D-glucofuranose, tripotassium salt]
- Paw Swelling, ZAS (MPO study) (rat hind paws; 17 mg/kg, n = 6): 16.83 ± 2.12 0.1 mm
- Paw Swelling, ZAS (MPO study) (rat hind paws; 50 mg/kg, n = 12): 15.25 ± 3.99 0.1 mm
- Paw Swelling, ZAS (rat hind paws; 2 hours post-ZAS, 50 mg/kg oral gavage 90 minutes before, control 27.22 ± 1.97): 10.78 ± 1.94 0.1 mm
- Swelling Change, ZAS (rat hind paws; 2 hours): -60%
- Swelling Change, normal serum (NS) (rat hind paws; 2 hours): -32%
- Paw Swelling, normal serum (NS) (rat hind paws; 2 hours, 50 mg/kg oral gavage, control 11.22 ± 1.28): 7.67 ± 1.41 0.1 mm
- Paw Swelling, ZAS (rat hind paws; 3 hours post-ZAS, 50 mg/kg oral gavage, control 28.89 ± 2.48): 16.11 ± 2.94 0.1 mm
- Swelling Change, ZAS (rat hind paws; 3 hours): -44%
- Swelling Change, normal serum (NS) (rat hind paws; 3 hours): -17%
- Paw Swelling, normal serum (NS) (rat hind paws; 3 hours, 50 mg/kg oral gavage, control 11.44 ± 1.55): 9.44 ± 1.28 0.1 mm
- buffering action, in words [1]: no buffering power
- % Change as a result of treatment (rat paw; reperfusion time 20 mins., i.p.): -46%
- Paw swelling, Mean ± SE (rat paw; reperfusion time 20 mins., control 8.20 ± 1.02): 4.60 ± 0.40 0.1 mm
- % Change as a result of treatment (rat paw; reperfusion time 30 mins., i.p.): -36%
- Paw swelling, Mean ± SE (rat paw; reperfusion time 30 mins., control 6.60 ± 0.87): 4.20 ± 0.37 0.1 mm
- inhibition of ischemic rat paw edema (rat paw; oral treatment route, after 20 minutes): 44%
- Swelling change as a result of treatment (rat paw; study A, 30 minutes reperfusion, 0.2 mg/kg i.p.): -53%
- Post-ischemic reperfusion 30 minute paw swelling, Mn ± SE (rat paw; study A, Compound III 0.2 mg/kg i.p. 45-60 minutes before tourniquet, control 12.7 ± 0.98): 6.0 ± 0.32 0.1 mm
- Swelling change as a result of treatment (rat paw; study B, 30 minutes, i.p., Compound III 0.2 mg/kg, allopurinol 20 mg/kg): -40%
- Post-ischemic reperfusion 30 minute paw swelling, Mn ± SE (rat paw; study B, i.p., Compound III 0.2 mg/kg, allopurinol 20 mg/kg, control 20.5 ± 0.76): 12.2 ± 0.70 0.1 mm
- Post-ischemic reperfusion 30 minute paw swelling, Mn ± SE (rat paw; study C, 0.2 mg/kg i.p., control 18.4 ± 0.54): 10.2 ± 0.28 0.1 mm
- Swelling change as a result of treatment (rat paw; study C, 30 minutes, 0.2 mg/kg i.p.): -45%
- Drug Effect on thrombi [2]: -62.3%
- Mean Thrombi per Stomach, ±SE ([2]; ethanol + ADP, control 10.60 ± 1.42): 4.00 ± 1.12 per Stomach
- inhibition of edema (mouse paw): 33-40%
